The text below walks through data of patent US20250230173A1, “SALT FORMS OF AN AXL INHIBITOR” (Arcus Biosciences, Inc., priority 2023, published 2025).

Format in all cases: physicochemical
Data set [1] can be described thus: Competitive slurry of 2-Napsylate Form I and Form VI at different water activities. As for the experimental part: To determine the impact of water activity on 2-Napsylate Form VI and 2-Napsylate Form I, a series of competitive slurry experiments were carried out at different water activities in THF/water and ACN/water solvent systems at RT and 55° C. Suspensions of 2-Napsylate Form I at each condition were made and allowed to equilibrate for 2 h followed by addition of ˜5 mg of Form VI with stirring.

Data set [2] can be described thus: Stability study of selected solid forms, XRPD after 7 days of storage. An excerpt: XRPD diffractograms were collected with a Bruker, D2 Phaser or Panalytical Empyrean X-ray diffractometer. Diffractograms can be read by one of skill in the art, for example, to determine if a chemical sample is the substantially the same, different, or represents a mixture of forms. When a diffractogram is “substantially in accordance” as another diffractogram, a person of skill in the art would regard the samples resulting in the two diffractograms as the same form or same mixture of forms, taking into account minor variations for instrumentation, conditions, and the like.
A stability study comparing amorphous freebase Compound I, Freebase Form II, 2-Napsylate Form I, Fumarate Form I, Succinate Form I, and Camsylate Form I was conducted. HPLC measurements were taken after 7 days of storage at the indicated conditions.

A short description of data set [3]: Stability study of selected solid forms, HPLC purity after 7 days of storage.
Data set [4] is described as follows: Stability of freebase Compound (I) in amorphous form, HPLC purity on storage. As for the experimental part: (§1) HPLC analysis was performed with an Agilent HPLC 1260 series instrument.
The stability of the freebase amorphous form of Compound (I), for example, as prepared in Example 1, was assessed by High Performance Liquid Chromatography (HPLC). […] Freebase Compound (I) in amorphous form was added to 5 separate vials. Each vial was sealed and stored for a period of 5 days at 20° C., 40° C., 60° C., 80° C., and 100° C., respectively. Purity was assessed by HPLC initially, and after 1, 3, and 5 days of storage.

A short description of data set [5]: Stability of amorphous salt forms of Compound (I), HPLC purity loss on storage. The settings on record: for HPLC Purity Loss on Day 14 (%): 14 days at 40° C., 75% RH; for HPLC Purity Loss (%): stored at RT for 10 days under ambient humidity (~75% RH), purity on day 3 minus purity on day 10. As for the experimental part: as §1
The stability of various amorphous salt forms of Compound (I) was also assessed. The salt forms, in general, were prepared by suspending Compound (I) in a suitable solvent at ambient temperature and adding the corresponding acid to the mixture. The mixtures were allowed to stir until a solution was formed, filtered to remove any trace solids, and the resulting filtrate lyophilized to access the salts as solids. Characterization by XRPD established that all salt forms were amorphous. […]

Data set [6] is described as follows: Form conversion of 2-Napsylate crystalline forms on vacuum drying or in slurry (XRPD). The following applies: drying at 40° C. under vacuum (overnight).
The mark [7] stands for this setting: 7 days, 2° C., listed as Amorphous Freebase.
Setting [8] is: 7 days, 25° C., listed as Amorphous Freebase.
Setting [9] is: 7 days, 40° C. / 75% RH, listed as Amorphous Freebase.
Where [10] appears, read: T0, listed as Amorphous Freebase.

The structures appear in SMILES notation. Marks after values point to notes of the source that are not given here.

Turning to `Cc1cccnc1-c1ccc(-c2n[nH]c3ncc(-c4ccc5c(c4)CC[C@@H](N4C6COCC4C6)CC5)cc23)nc1`, the “2-Napsyalte Crystal Form” value in data set [1] (55° C., H2O, 1 w) is “Gel Formation”; in data set [1] (55° C., H2O, 2 d) it was “Gel Formation”; in data set [1] (55° C., THF, 1 w), “Form I (majorly)”; in data set [1] (55° C., THF, 2 d), “Form VI (majorly)”; in data set [1] (55° C., THF/H2O (aw = 0.2), 1 w), “Form I”; in data set [1] (55° C., THF/H2O (aw = 0.2), 2 d), “Form I (majorly)”. Also, the “2-Napsyalte Crystal Form” value in data set [1] (55° C., THF/H2O (aw = 0.4), 1 w) is listed as “Gel Formation”; in data set [1] (55° C., THF/H2O (aw = 0.4), 2 d), “Gel Formation”; in data set [1] (55° C., THF/H2O (aw = 0.6), 1 w) it was “Gel Formation”; in data set [1] (55° C., THF/H2O (aw = 0.6), 2 d), “Gel Formation”; in data set [1] (55° C., THF/H2O (aw = 0.8), 1 w), “Gel Formation”; in data set [1] (55° C., THF/H2O (aw = 0.8), 2 d), “Gel Formation”. Further, the “2-Napsyalte Crystal Form” value in data set [1] (RT, H2O, 1 w) is “Form IX”; in data set [1] (RT, H2O, 2 d), “Form I”; in data set [1] (RT, THF, 1 w) it was “Form I (majorly)”; in data set [1] (RT, THF, 2 d), “Form VI (majorly)”; in data set [1] (RT, THF/H2O (aw = 0.2), 1 w), “Form I (majorly)”; in data set [1] (RT, THF/H2O (aw = 0.2), 2 d), “Form I (majorly)”. In addition, the “2-Napsyalte Crystal Form” value in data set [1] (RT, THF/H2O (aw = 0.4), 1 w) is “Gel Formation”; in data set [1] (RT, THF/H2O (aw = 0.4), 2 d), “Gel Formation”; in data set [1] (RT, THF/H2O (aw = 0.6), 1 w), “Gel Formation”; in data set [1] (RT, THF/H2O (aw = 0.6), 2 d), “Gel Formation”; in data set [1] (RT, THF/H2O (aw = 0.8), 1 w) it was “Gel Formation”; in data set [1] (RT, THF/H2O (aw = 0.8), 2 d), “Gel Formation”. Further, the “2-Napsylate Crystal Form” value is recorded as “Form I” in data set [1] (RT, ACN, 1 d); “Form I” in data set [1] (RT, ACN/H2O (aw = 0.2), 1 d); “Form I” in data set [1] (RT, ACN/H2O (aw = 0.4), 1 d); “Form I” in data set [1] (RT, ACN/H2O (aw = 0.6), 1 d); “Gel Formation” in data set [1] (RT, ACN/H2O (aw = 0.8), 1 d); “Form I” in data set [1] (RT, H2O, 1 d (ACN series)).
With `Cc1cccnc1-c1ccc(-c2n[nH]c3ncc(-c4ccc5c(c4)CC[C@@H](N4C6COCC4C6)CC5)cc23)nc1` [Amorphous Compound (I) (freebase)], the “XRPD (solid form)” value in data set [2] (setting [7]), in data set [2] (setting [8]), in data set [2] (setting [9]) and in data set [2] (setting [10]) was “Amorphous” throughout. Further, the “HPLC Purity (A %)” value in data set [3] (setting [7]) was found to be 97.68 A %; in data set [3] (setting [8]) it was 97.58 A %; in data set [3] (setting [9]), 96.88 A %; in data set [3] (setting [10]), 97.42 A %. The HPLC purity in data set [4] (40° C., Day 0) came out at 96.45 % purity; in data set [4] (40° C., Day 1), 96.12% purity; in data set [4] (40° C., Day 3), 95.87% purity; in data set [4] (40° C., Day 5) it was 95.00% purity; in data set [4] (60° C., Day 0), 96.45 % purity; in data set [4] (60° C., Day 1), 95.92% purity. The HPLC purity was determined as 93.06% purity in data set [4] (60° C., Day 3); 92.39% purity in data set [4] (60° C., Day 5); 96.45 % purity in data set [4] (80° C., Day 0); 95.01% purity in data set [4] (80° C., Day 1); 91.87% purity in data set [4] (80° C., Day 3); 89.86% purity in data set [4] (80° C., Day 5). In addition, the HPLC purity in data set [4] (100° C., Day 0) was determined as 96.45 % purity; in data set [4] (100° C., Day 1) it was 90.13% purity; in data set [4] (100° C., Day 3), 74.66% purity; in data set [4] (100° C., Day 5), 68.00% purity; in data set [4] (r.t., Day 0), 96.45 % purity; in data set [4] (r.t., Day 1) it was 96.23% purity. In addition, the HPLC purity in data set [4] (r.t., Day 3) amounted to 96.01% purity; in data set [4] (r.t., Day 5), 96.03% purity. In addition, the “Decomposition on storage (HPLC)” value in data set [4] (sealed vials, 5 days at 20° C., 40° C., 60° C., 80° C., 100° C.) is given as “underwent decomposition”.
Consider `Cc1cccnc1-c1ccc(-c2n[nH]c3ncc(-c4ccc5c(c4)CC[C@@H](N4C6COCC4C6)CC5)cc23)nc1` [Benzene Sulfonic], for which the “HPLC Purity Loss on Day 14 (%)” value in data set [5] is 3.4%.
As to `Cc1cccnc1-c1ccc(-c2n[nH]c3ncc(-c4ccc5c(c4)CC[C@@H](N4C6COCC4C6)CC5)cc23)nc1` [Benzoate], in data set [5], the “HPLC Purity Loss (%)” value is 3.0* %.
Turning to `Cc1cccnc1-c1ccc(-c2n[nH]c3ncc(-c4ccc5c(c4)CC[C@@H](N4C6COCC4C6)CC5)cc23)nc1` [Camsylate Form I], the “XRPD (solid form)” value in data set [2] (7 days, 2° C.) is recorded as “Form I”; in data set [2] (7 days, 25° C.), “Form I”; in data set [2] (7 days, 40° C. / 75% RH) it was “Decreased”; in data set [2] (T0) it was “Form I”. Besides, the “HPLC Purity (A %)” value in data set [3] (7 days, 2° C.) was found to be 99.69 A %; in data set [3] (7 days, 25° C.) it was 99.68 A %; in data set [3] (7 days, 40° C. / 75% RH), 99.29 A %; in data set [3] (T0) it was 99.69 A %.
For the molecule `Cc1cccnc1-c1ccc(-c2n[nH]c3ncc(-c4ccc5c(c4)CC[C@@H](N4C6COCC4C6)CC5)cc23)nc1` [Chloride], in data set [5], the “HPLC Purity Loss on Day 14 (%)” value is given as 1.5% and the “HPLC Purity Loss (%)” value is reported as 6.6* %.
On to `Cc1cccnc1-c1ccc(-c2n[nH]c3ncc(-c4ccc5c(c4)CC[C@@H](N4C6COCC4C6)CC5)cc23)nc1` [Citrate], for which the “HPLC Purity Loss on Day 14 (%)” value in data set [5] amounted to 14.2%.
As for `Cc1cccnc1-c1ccc(-c2n[nH]c3ncc(-c4ccc5c(c4)CC[C@@H](N4C6COCC4C6)CC5)cc23)nc1` [Form V], the “Crystal form after drying” value in data set [6] is recorded as “Form VII after”.
With `Cc1cccnc1-c1ccc(-c2n[nH]c3ncc(-c4ccc5c(c4)CC[C@@H](N4C6COCC4C6)CC5)cc23)nc1` [Freebase Form II], the “XRPD (solid form)” value in data set [2] (7 days, 25° C.) is “Form II”; in data set [2] (7 days, 40° C. / 75% RH) it was “Form II”; in data set [2] (7 days, 60° C.), “Form I”; in data set [2] (T0), “Form II”. Also, the “HPLC Purity (A %)” value in data set [3] (7 days, 25° C.) is given as 99.44 A %; in data set [3] (7 days, 40° C. / 75% RH) it was 99.36 A %; in data set [3] (7 days, 60° C.), 99.22 A %; in data set [3] (T0) it was 100.0 A %. In addition, the “Chemical and physical stability compared to the other forms tested” value in data set [3] (Example 6 stability study) was “better chemical and physical stability”.
On to `Cc1cccnc1-c1ccc(-c2n[nH]c3ncc(-c4ccc5c(c4)CC[C@@H](N4C6COCC4C6)CC5)cc23)nc1` [Fumarate Form I], for which the “XRPD (solid form)” value in data set [2] (7 days, 2° C.) is “Form I”; in data set [2] (7 days, 25° C.), “Form I”; in data set [2] (7 days, 40° C. / 75% RH) it was “Form I”; in data set [2] (T0), “Form I”. The “HPLC Purity (A %)” value in data set [3] (7 days, 2° C.) is reported as 98.01 A %; in data set [3] (7 days, 25° C.) it was 97.94 A %; in data set [3] (7 days, 40° C. / 75% RH), 95.29 A %; in data set [3] (T0), 97.84 A %.
In the case of `Cc1cccnc1-c1ccc(-c2n[nH]c3ncc(-c4ccc5c(c4)CC[C@@H](N4C6COCC4C6)CC5)cc23)nc1` [Succinate Form I], the “XRPD (solid form)” value in data set [2] (7 days, 2° C.) is reported as “Form I”; in data set [2] (7 days, 25° C.) it was “Form I”; in data set [2] (7 days, 40° C. / 75% RH) it was “Form I”; in data set [2] (T0), “Form I”. In addition, the “HPLC Purity (A %)” value in data set [3] (7 days, 2° C.) worked out at 97.74 A %; in data set [3] (7 days, 25° C.), 98.22 A %; in data set [3] (7 days, 40° C. / 75% RH) it was 89.76 A %; in data set [3] (T0) it was 98.09 A %.
